The results in this text go back to patent publication US9777005B2 (Takeda Pharmaceutical Company Limited, priority 2012, dated 2017).

This assay concerns the target T1, human M1 receptor (hCHRM1) (Homo sapiens, UniProt P11229).
T1 construct: expressed in transfected cells; host or cells: CHO-K1
T1 sequence (P11229 1-460): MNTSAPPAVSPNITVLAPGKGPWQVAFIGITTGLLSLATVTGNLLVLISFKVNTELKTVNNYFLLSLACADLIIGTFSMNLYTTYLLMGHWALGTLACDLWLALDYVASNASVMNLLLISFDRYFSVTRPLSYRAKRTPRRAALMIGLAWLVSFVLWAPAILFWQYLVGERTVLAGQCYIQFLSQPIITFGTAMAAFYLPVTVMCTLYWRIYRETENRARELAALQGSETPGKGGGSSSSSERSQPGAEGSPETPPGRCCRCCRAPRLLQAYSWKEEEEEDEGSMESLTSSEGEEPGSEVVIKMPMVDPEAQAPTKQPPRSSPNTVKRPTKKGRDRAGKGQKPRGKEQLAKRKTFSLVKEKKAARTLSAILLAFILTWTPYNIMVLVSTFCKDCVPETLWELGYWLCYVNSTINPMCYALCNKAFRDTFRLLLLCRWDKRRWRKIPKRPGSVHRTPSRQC
The experiment in a line: Measurement of M1 receptor positive allosteric modulator (M1PAM) activity, calcium fluorescence (FLIPRtetra) in CHO-K1 cells in the presence of acetylcholine at EC20. The assay is classed as cell-based. To be noted: in the presence of acetylcholine at EC20 (final 0.6 nM), CHO-K1 cells expressing hCHRM1; for EC50: inflection point of M1PAM activity, read-out: IP value; for activity (%) at 10 μM: test compound 10 μM. The method, boiled down: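 CHO-K1 cells expressing human M1 were loaded with Fluo-4 AM, and compound was added with acetylcholine at EC20 (final 0.6 nM). Calcium fluorescence was read on FLIPRtetra for 1 min. Activity was normalized to 1 μM acetylcholine (100%) and DMSO (0%), and the curve inflection point was reported as IP.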

The structures appear in SMILES notation.

Take `Cc1cc(-c2cnc(CN3Cc4cccc(Oc5c(F)cccc5F)c4C3=O)c(F)c2)ccn1` [Example 264, 7-(2,6-difluorophenoxy)-2-((5-fluoro-2′-methyl-3,4′-bipyridin-6-yl)methyl)isoindolin-1-one]: the EC50 was found to be 140 nM and the “activity (%) at 10 μM” value came to 92%.
The matching figures for `Cc1nn(C)cc1-c1ccc(CN2Cc3ccnc(OCC4CCOC4)c3C2=O)cc1` (centres unmarked) [Example 265, 2-(4-(1,3-dimethyl-1H-pyrazol-4-yl)benzyl)-4-((tetrahydrofuran-3-yl)methoxy)-1,2-dihydro-3H-pyrrolo[3,4-c]pyridin-3-one]: 24 nM and 96%.
Take `Cc1cc(-c2ccc(CN3Cc4ccnc(OCC5CCOC5)c4C3=O)cc2)ccn1.Cl` (centres unmarked) [Example 266, 2-(4-(2-methylpyridin-4-yl)benzyl)-4-((tetrahydrofuran-3-yl)methoxy)-1,2-dihydro-3H-pyrrolo[3,4-c]pyridin-3-one hydrochloride]: the EC50 was found to be 45 nM and the “activity (%) at 10 μM” value worked out at 100%.
As for `Cn1ccc(-c2ccc(CN3Cc4cccc(O[C@@H]5CCOC[C@H]5O)c4C3=O)cc2)n1` [Example 272, 1,5-anhydro-2-deoxy-3-O-(2-(4-(1-methyl-1H-pyrazol-3-yl)benzyl)-3-oxo-2,3-dihydro-1H-isoindol-4-yl)-threo-pentitol], the EC50 stood at 6.5 nM and the “activity (%) at 10 μM” value is recorded as 107%.
The corresponding values for `Cn1ccc(-c2ccc(CN3Cc4cccc(O[C@@H]5COCC[C@H]5O)c4C3=O)cc2)n1` [Example 273, 1,5-anhydro-2-deoxy-4-O-(2-(4-(1-methyl-1H-pyrazol-3-yl)benzyl)-3-oxo-2,3-dihydro-1H-isoindol-4-yl)-threo-pentitol] are 8.5 nM and 103%.
With `Cc1nn(C)cc1-c1ccc(CN2Cc3ccnc(Oc4c(F)cccc4Cl)c3C2=O)c(F)c1` [Example 280, 4-(2-chloro-6-fluorophenoxy)-2-(4-(1,3-dimethyl-1H-pyrazol-4-yl)-2-fluorobenzyl)-1,2-dihydro-3H-pyrrolo[3,4-c]pyridin-3-one], the EC50 was 26 nM and the “activity (%) at 10 μM” value worked out at 110%.
Regarding `Cc1nn(C)cc1-c1ccc(CN2Cc3ccnc(Oc4c(F)cccc4Cl)c3C2=O)cc1` [Example 281, 4-(2-chloro-6-fluorophenoxy)-2-(4-(1,3-dimethyl-1H-pyrazol-4-yl)benzyl)-1,2-dihydro-3H-pyrrolo[3,4-c]pyridin-3-one], the EC50 amounted to 65 nM and the “activity (%) at 10 μM” value was 108%.
The matching figures for `COc1ccc(F)c(Oc2nccc3c2C(=O)N(Cc2ccc(-c4cn(C)nc4C)cc2F)C3)c1F` [Example 283, 4-(2,6-difluoro-3-methoxyphenoxy)-2-(4-(1,3-dimethyl-1H-pyrazol-4-yl)-2-fluorobenzyl)-1,2-dihydro-3H-pyrrolo[3,4-c]pyridin-3-one]: 10 nM and 97%.
The corresponding values for `O=C1c2c(ccnc2OCC2CCCO2)CN1Cc1ccc(Br)cc1` (centres unmarked) [Example 284, 2-(4-bromobenzyl)-4-((tetrahydrofuran-2-yl)methoxy)-1,2-dihydro-3H-pyrrolo[3,4-c]pyridin-3-one] are 340 nM and 94%.
The matching figures for `Cn1cc(-c2ccc(CN3Cc4ccnc(OCC5CCCO5)c4C3=O)cc2)cn1` (centres unmarked) [Example 285]: 10 nM and 95%.
Take `O=C1c2c(ccnc2OCC2CCCO2)CN1Cc1ccc(-c2cn[nH]c2)cc1` (centres unmarked) [Example 286, 2-(4-(1H-pyrazol-4-yl)benzyl)-4-((tetrahydrofuran-2-yl)methoxy)-1,2-dihydro-3H-pyrrolo[3,4-c]pyridin-3-one]: the EC50 stood at 13 nM and the “activity (%) at 10 μM” value was found to be 99%.
The corresponding values for `O=C1c2c(ccnc2OCC2CCCO2)CN1Cc1ccc(-c2cnn(CC(F)(F)F)c2)cc1` (centres unmarked) [Example 287, 4-((tetrahydrofuran-2-yl)methoxy)-2-(4-(1-(2,2,2-trifluoroethyl)-1H-pyrazol-4-yl)benzyl)-1,2-dihydro-3H-pyrrolo[3,4-c]pyridin-3-one] are 10 nM and 99%.
Take `O=C1c2c(ccnc2OCC2CCCO2)CN1Cc1ccc(-c2cnn(CC3CC3)c2)cc1` (centres unmarked) [Example 288, 2-(4-(1-(cyclopropylmethyl)-1H-pyrazol-4-yl)benzyl)-4-((tetrahydrofuran-2-yl)methoxy)-1,2-dihydro-3H-pyrrolo[3,4-c]pyridin-3-one]: the EC50 was determined as 12 nM and the “activity (%) at 10 μM” value was 103%.
For the compound `O=C1c2c(ccnc2OCC2CCCO2)CN1Cc1ccc(-c2cnn3ccccc23)cc1` (centres unmarked) [Example 289, 2-(4-(pyrazolo[1,5-a]pyridin-3-yl)benzyl)-4-((tetrahydrofuran-2-yl)methoxy)-1,2-dihydro-3H-pyrrolo[3,4-c]pyridin-3-one], the EC50 was 4.7 nM and the “activity (%) at 10 μM” value stood at 89%.
Take `Cc1cc(-c2ccc(CN3Cc4ccnc(Oc5cc(CO)ccc5F)c4C3=O)cc2)ccn1` [Example 290, 4-(2-fluoro-5-(hydroxymethyl)phenoxy)-2-(4-(2-methylpyridin-4-yl)benzyl)-1,2-dihydro-3H-pyrrolo[3,4-c]pyridin-3-one]: the EC50 stood at 44 nM and the “activity (%) at 10 μM” value is recorded as 91%.
The corresponding values for `COCc1ccc(F)c(Oc2nccc3c2C(=O)N(Cc2ccc(-c4ccnc(C)c4)cc2)C3)c1` [Example 291, 4-(2-fluoro-5-(methoxymethyl)phenoxy)-2-(4-(2-methylpyridin-4-yl)benzyl)-1,2-dihydro-3H-pyrrolo[3,4-c]pyridin-3-one] are 34 nM and 91%.
The corresponding values for `O=C1c2c(ccnc2OCC2CCCO2)CN1Cc1ccc(-c2cnn3c2CCCC3)cc1` (centres unmarked) [Example 296, 4-((tetrahydrofuran-2-yl)methoxy)-2-(4-(4,5,6,7-tetrahydropyrazolo[1,5-a]pyridin-3-yl)benzyl)-1,2-dihydro-3H-pyrrolo[3,4-c]pyridin-3-one] are 12 nM and 92%.
For `Cn1cc(-c2ccc(CN3Cc4ccnc(Oc5cc(C#N)ccc5F)c4C3=O)cc2)cn1` [Example 297, 4-fluoro-3-((2-(4-(1-methyl-1H-pyrazol-4-yl)benzyl)-3-oxo-2,3-dihydro-1H-pyrrolo[3,4-c]pyridin-4-yl)oxy)benzonitrile], the EC50 is 16 nM and the “activity (%) at 10 μM” value is given as 96%.
The corresponding values for `COCc1ccc(F)c(Oc2nccc3c2C(=O)N(Cc2ccc(-c4cnn(C)c4)cc2)C3)c1` [Example 302, 4-(2-fluoro-5-(methoxymethyl)phenoxy)-2-(4-(1-methyl-1H-pyrazol-4-yl)benzyl)-1,2-dihydro-3H-pyrrolo[3,4-c]pyridin-3-one] are 32 nM and 92%.
With `Cc1cc(-c2ccc(CN3Cc4ccnc(Oc5ccc(C(F)(F)F)cc5F)c4C3=O)cc2)cnn1` [Example 303, 4-(2-fluoro-4-(trifluoromethyl)phenoxy)-2-(4-(6-methylpyridazin-4-yl)benzyl)-1,2-dihydro-3H-pyrrolo[3,4-c]pyridin-3-one], the EC50 stood at 8.5 nM and the “activity (%) at 10 μM” value is 91%.
The matching figures for `Cn1cc(-c2ccc(CN3Cc4ccnc(Oc5ccc(C(F)(F)F)cc5F)c4C3=O)cc2)cn1` [Example 304, 4-(2-fluoro-4-(trifluoromethyl)phenoxy)-2-(4-(1-methyl-1H-pyrazol-4-yl)benzyl)-1,2-dihydro-3H-pyrrolo[3,4-c]pyridin-3-one]: 12 nM and 93%.
Take `Cn1ccc(-c2ccc(CN3Cc4ccnc(Oc5ccc(C(F)(F)F)cc5F)c4C3=O)cc2)n1` [Example 305, 4-(2-fluoro-4-(trifluoromethyl)phenoxy)-2-(4-(1-methyl-1H-pyrazol-3-yl)benzyl)-1,2-dihydro-3H-pyrrolo[3,4-c]pyridin-3-one]: the EC50 was found to be 25 nM and the “activity (%) at 10 μM” value amounted to 94%.
The corresponding values for `Cn1cc(-c2ccc(CN3Cc4ncnc(Oc5ccc(C(F)(F)F)cc5F)c4C3=O)cc2)cn1` [Example 306, 4-(2-fluoro-4-(trifluoromethyl)phenoxy)-6-(4-(1-methyl-1H-pyrazol-4-yl)benzyl)-6,7-dihydro-5H-pyrrolo[3,4-d]pyrimidin-5-one] are 8.9 nM and 97%.
The matching figures for `Cn1cc(-c2ccc(CN3Cc4ncnc(Oc5ccc(C(F)F)cc5F)c4C3=O)cc2)cn1` [Example 307, 4-(4-(difluoromethyl)-2-fluorophenoxy)-6-(4-(1-methyl-1H-pyrazol-4-yl)benzyl)-6,7-dihydro-5H-pyrrolo[3,4-d]pyrimidin-5-one]: 9.3 nM and 92%.
Consider `Cn1cc(-c2ccc(CN3Cc4ccnc(Oc5cc(C(C)(C)O)ccc5F)c4C3=O)cc2)cn1` [Example 308, 4-(2-fluoro-5-(2-hydroxypropan-2-yl)phenoxy)-2-(4-(1-methyl-1H-pyrazol-4-yl)benzyl)-1,2-dihydro-3H-pyrrolo[3,4-c]pyridin-3-one], for which the EC50 amounted to 44 nM and the “activity (%) at 10 μM” value was found to be 99%.
